# Entries after “also recorded” stand apart in the source; their conditions may differ. Where no end group is shown, it is not given here.
# Experiments:
# [1] = Blood coagulation parameters after inferior vena cava ligation; assay type: in vivo, Lewis rats; conditions: across doses, result in words
# Protocol: (§1) Adult Lewis rats weighing 200-250 g were randomly distributed into three treatment groups with 4 male and 4 female rats in each group. Group 1 received 1.0 mL saline subcutaneously on days 0 and 14. Group 2 received 1.0 mL saline with 0.025 mg AtheroVax peptide (SEQ ID NO: 18) and 0.025 mg aluminum hydroxide adjuvant on days 0 and 14. Group 3 received 1.0 mL saline with 0.075 mg AtheroVax peptide (SEQ ID NO: 18) and 0.075 mg aluminum hydroxide adjuvant on days 0 and 14. […] The abdominal cavity was sutured immediately after the ligation. The rats were euthanized 4 hours after dressing.
# (§2) The thrombus was removed from the rats and wet weight determined. In addition, blood was recovered from the rats and coagulation parameters prothrombin time (PT), thrombin time (TT), and fibrinogen were measured.
# (§3) Statistical analysis of mean and standard deviation for male, female, and combined values were calculated for each of the coagulation parameters. Pairwise comparisons using the students T-test were performed using Excel. Significance was determined if the p-value is less than 0.05.
# [2] = tested on: Rat Colitis Model of Ulcerative Colitis; assay: Rat colitis model of ulcerative colitis: visual and gross observations; assay type: in vivo
# Protocol: (§4) Rats were vaccinated with a human sTNFR2 peptide, DFALPVEKPLCLOR (SEQ ID NO: 18), targeting the human sTNFR2 peptide. The rats were injected with 25 μg of the peptide subcutaneously with 25 μg Alum as adjuvant in PBS 10 days before initiating colitis. The studies were performed in accordance with the recommendations of the Animal Care and Use Committee of Tbilisi State Medical University. Briefly, the colitis was induced by introduction of 4% acetic acid at 24-hour intervals for three days into the colon under light anesthesia (50 mg/kg ketamine HCl and 5 mg/kg xylaxine). Injections were intrarectal through 2 mm diameter, 6-8 cm long polyethylene catheter to deliver 1 mL solution. See Cagin et al., Exp. Ther. Med. 12 (5): 2958-2964 (2016).
# The study design included 4 treatment groups:
# Group B: alum only 10 day prior, followed by colitis
# Group C: sTNFR2 peptide (SEQ ID NO: 18)+alum 10 day prior, followed by colitis
# Group D: no vaccine and no colitis
# rat colon tissue = assay: Colon histology, rat colitis model; assay type: in vivo; conditions: for colon micrographs (H&E, Masson's trichrome): tissue loss and inflammation: administered 10 days prior to initiating colitis, result in words, listed as sTNR2 peptide
# Protocol: as §4
# Colon samples were fixed in 10% neutral buffered formalin for 24 hours at room temperature and embedded in paraffin. Tissue sections, 5 μm thick, were stained with hematoxylin and eosin (H&E), Masson's trichrome, and Periodic Acid-Schiff (PAS) according to the manufacturer's protocols. Histological evaluation of colons were assigned scores, (a score of 1 is normal and a score of 4 is severe pathology) for the number of animals with pathology >2, average pathology score, pathology distribution, and average inflammatory score (Table 7).
# [3] = tested on: regulatory T cells (Tregs); assay: FoxP3 immunohistochemistry of colon, rat ulcerative colitis model; assay type: in vivo; conditions: 75 μg peptide and alum adjuvant one week prior to colitis; colon collected 8 days after initiation; vs unvaccinated
# Protocol: These studies were performed in accordance with the recommendations of the Animal Care and Use Committee of Tbilisi State Medical University. Colitis was initiated following introduction of 4% acetic acid at 24-hour intervals for three days into colon under light anesthesia (50 mg/kg ketamine HCl and 5 mg/kg xylaxine). Injections were intrarectal through 2 mm diameter, 6-8 cm long polyethylene catheter to deliver 1 mL solution.
# Colon samples were fixed in 10% neutral buffered formalin for 24 hours at room temperature and embedded in paraffin. Tissue sections 5 μm thick were stained with hematoxylin and eosin (H&E), Masson's trichrome, and Periodic Acid-Schiff stain (PAS) according to the manufacturer's protocols. The immunohistochemistry utilized a FoxP3 rabbit monoclonal antibody, ab215206, obtained from Abcam (Boston, MA) followed by a goat anti-rabbit secondary antibody conjugated with peroxidase.
# thrombus = assay: Inferior vena cava ligation thrombus, wet weight; assay type: in vivo, Lewis rats; conditions: for Thrombus (wet weight): 4 hours after ligation, saline 0.015 ± 0.001
# Protocol: as §1, §2, §3
# TNFα = TNFα ELISA in rat colitis model; assay type: in vivo; conditions: for tissue resident TNFα: colon tissue; for reduction in TNFα: vaccinated animals
# Protocol: as §4
# (§5) TNFα and IL-6 cytokines were measured with ELISA kits according to the manufacturer's instructions (Invitrogen). The ELISA plates were developed with tetramethylbenzidine (TMB) substrate and absorbance was read at 450 nm using an ELx808 Ultra Microplate Reader (BioTek Instruments GmbH, Lucerne, Switzerland). […] Reduction in TNFα is consistent with loss of sTNFR2 binding.
# (§6) All values reported are mean and standard error of the mean. Group comparisons are either two-tailed t-test or ANOVA calculated using Excel.
# IL-6 = IL-6 ELISA in rat colitis model; assay type: in vivo; conditions: for tissue resident IL-6: colon tissue
# Protocol: as §4, §5, §6
# [4] = score of 1 is normal, 4 is severe pathology, colitis only group 4
# [5] = circulating blood, vaccinated vs control animals, result in words
# [6] = result in words, listed as AtheroVax
substance,measurement,setting,value
DFALPVE/KPLCLQR (DFALPVEKPLCLQR; not fully specified; listed as Homo sapiens) [AtheroVax peptide (SEQ ID NO: 18)],fibrinogen,[1],elevation
same,prothrombin times,[1],increased
same,thrombin time,[1],decreased
same,elevations in body temperature,"[2]; rats, 25 μg peptide with 25 μg Alum 10 days before colitis",significantly prevented
same,loss of body weight,"[2]; rats, 25 μg peptide with 25 μg Alum 10 days before colitis, visual observations",significantly prevented
same,"gross colon observations (hyperemic, edematous, thickened, sharply increased volume)","[2]; rats, peptide + alum 10 days before colitis, compared with Group A (unvaccinated)",not associated
same,Bleeding,"[2]; rats, subcutaneous injection 10 days before 4% acetic acid colitis, peptide 25 μg with 25 μg Alum",Hemoccult Negative
same,Stool,"[2]; rats, subcutaneous injection 10 days before 4% acetic acid colitis, peptide 25 μg with 25 μg Alum, listed as sTNFR2 peptide (SEQ ID NO: 18)+alum",Normal
same,Stool,"[2]; rats, subcutaneous injection 10 days before 4% acetic acid colitis, peptide 25 μg with 25 μg Alum, listed as sTNR2 peptide (SEQ ID NO: 18)+alum adjuvant",normal stools
same,integrity of the colon and outcomes in the rat colitis model,"[2]; vaccinated vs control animals, result in words",preserved integrity oof the colon and improved outcomes
same,"colon micrographs (H&E, Masson's trichrome): tissue loss and inflammation",rat colon tissue,significant protection against inflammation
same,"colon micrographs (H&E, Masson's trichrome): tissue loss and inflammation",rat colon tissue; (SEQ ID NO: 18) and alum adjuvant,significant protective effect
same,Number animals with pathology >2 (1-5),"rat colon tissue; rat colitis model, colon histology",5
same,Average Inflammatory Score (1-4),rat colon tissue; [4],2
same,Average Pathology Score (1-4),rat colon tissue; [4],1
same,Pathology Distribution (1-4),rat colon tissue; [4],2
same,intensity of FoxP3 (Treg) staining in colon,[3],less intense; also recorded: do not stain as intensely
same,number of FoxP3 positive cells in colon,[3],fewer cells; also recorded: reduced; also recorded: lower frequencies
same,Thrombus (wet weight),"thrombus; Grp. 2, 25 μg peptide + adjuvant days 0 and 14",0.011±0.001 grams
same,Thrombus (wet weight),"thrombus; Grp. 3, 75 μg peptide + adjuvant days 0 and 14",0.007±0.001 grams
same,thrombus weight,"thrombus; across doses, treatment prior to initiation of thrombosis, result in words",dose dependent smaller
same,TNFα (mean ± SEM),"TNFα; ELISA, rat colitis model, injection 10 days before colitis, colitis only group 29.20 ± 0.65",1.12 ± 0.13
same,circulating levels of TNFα,TNFα; [5],significantly lower
same,tissue resident TNFα,TNFα; result in words,significantly lower
same,tissue resident TNFα,TNFα; [6],significant reductions
same,reduction in TNFα,TNFα; result in words,significant reductions
same,reduction in TNFα,"TNFα; result in words, listed as sTNFR2 peptide (SEQ ID NO: 18)+alum",significant reduction
same,IL-6 (mean ± SEM),"IL-6; ELISA, rat colitis model, injection 10 days before colitis, colitis only group 6.46 ± 0.22",1.76 ± 0.13
same,circulating levels of IL-6,IL-6; [5],significantly lower
same,tissue resident IL-6,IL-6; result in words,significantly lower
same,tissue resident IL-6,IL-6; [6],significant reductions
same,reduction in IL-6,"IL-6; vaccinated animals, result in words",significant reductions

# From patent US20250064907A1, “THERAPEUTIC VACCINES FOR TREATMENT OF CHRONIC INFLAMMATORY DISEASES” (ATHEROVAX, LLC, priority 2023, published 2025)
